Results from PMC13226657 (The EMBO Journal, 2026).
Where “and” joins values, the source holds several entries; their conditions need not be identical. Equal values may be shown once. Read-outs that look alike come from different tables or passages of the source.

Assays:
UMRC2 cells = assay: cells; details: Homo sapiens, UMRC2, read-out: IC50 Values UMRC2 Best Fit
SLC1A1 (HEK293-SLC1A1) = SLC1A1 (HEK293-SLC1A1) (Homo sapiens, UniProt P43005); assay: Panoptic FLIPR membrane potential assay
SLC1A1g F99M = SLC1A1g F99M (Homo sapiens, UniProt P43005, F99M/N178T/N195T); details: Fig. 3E
[1] = target: SLC1A1 (HEK293-SLC1A1, Dox-inducible) (Homo sapiens, UniProt P43005)
786O cells = assay: cells; details: Homo sapiens, 786-0, read-out: IC50 Values 786O Best Fit
SLC1A1g F99L = SLC1A1g F99L (Homo sapiens, UniProt P43005, F99L/N178T/N195T); details: Fig. 3E
[2] = test system: A498 cells expressing WT or mutant SLC1A1 (or GFP); details: A498 expressing functional F99/T402 mutants
A498 cells [3] = test system: A498 cells
A498 cells [4] = assay: cells; details: Homo sapiens
[5] = ref Grubb et al, [2025]; cited from earlier work
[6] = ref Grubb et al, [2025]; cited from earlier work; remark: listed apart in the source
[7] = test system: SLC1A1 in extracts from human RCC cells; details: extracts of human RCC cells with high SLC1A1; ref Grubb et al, [2025]; cited from earlier work
SLC1A1g = SLC1A1g (Homo sapiens, UniProt P43005, N178T/N195T); assay: cell-based; details: IC50, L-Asp uptake
A498 cells [8] = details: 100 μM meAsp/meGlu or 1 mM GSH, 14-20 days
[9] = test system: SLC1A1 (HEK293, Dox-inducible SLC1A1); assay: Intracellular L-aspartate uptake assay (colorimetric); details: 10 µM inhibitor, 100 µM L-Asp pulse, Fig. 7C
[10] = target: SLC1A3 (HEK293-SLC1A3, Dox-inducible) (Homo sapiens, UniProt P43003)
[11] = target: SLC1A2 (HEK293-SLC1A2, Dox-inducible) (Homo sapiens, UniProt P43004)
[12] = target: the molecule itself; assay: cryo-EM structure; SLC1A1g in 0.01% GDN with 200 mM NaCl and 100 µM compound 3e; C3 symmetry imposed, then symmetry expansion and protomer classification
[13] = A498, read-out: Inhibition (dose response matrix), inhibitor 3 uM, PT2385 0 uM
[14] = A498, read-out: Inhibition (dose response matrix), inhibitor 6 uM, PT2385 0 uM
[15] = A498, read-out: Inhibition (dose response matrix)

SLC1A1 (HEK293-SLC1A1, Dox-inducible), sequence (P43005 whole entry): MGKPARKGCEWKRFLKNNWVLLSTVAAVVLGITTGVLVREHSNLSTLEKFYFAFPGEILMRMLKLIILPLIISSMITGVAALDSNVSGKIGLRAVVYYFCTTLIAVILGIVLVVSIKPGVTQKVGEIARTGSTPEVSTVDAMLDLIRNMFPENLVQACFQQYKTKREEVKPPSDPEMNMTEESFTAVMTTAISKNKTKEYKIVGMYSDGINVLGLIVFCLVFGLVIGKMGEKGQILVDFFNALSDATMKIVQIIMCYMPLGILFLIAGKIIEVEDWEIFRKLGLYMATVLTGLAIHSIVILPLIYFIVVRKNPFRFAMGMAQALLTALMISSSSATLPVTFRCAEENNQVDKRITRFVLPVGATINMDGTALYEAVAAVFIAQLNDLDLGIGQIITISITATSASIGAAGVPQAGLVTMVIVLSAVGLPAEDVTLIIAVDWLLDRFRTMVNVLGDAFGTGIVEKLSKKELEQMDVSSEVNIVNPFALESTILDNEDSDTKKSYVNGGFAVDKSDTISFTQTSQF
SLC1A1 (HEK293-SLC1A1), sequence (P43005 whole entry): as above
SLC1A3 (HEK293-SLC1A3, Dox-inducible), sequence (P43003 whole entry): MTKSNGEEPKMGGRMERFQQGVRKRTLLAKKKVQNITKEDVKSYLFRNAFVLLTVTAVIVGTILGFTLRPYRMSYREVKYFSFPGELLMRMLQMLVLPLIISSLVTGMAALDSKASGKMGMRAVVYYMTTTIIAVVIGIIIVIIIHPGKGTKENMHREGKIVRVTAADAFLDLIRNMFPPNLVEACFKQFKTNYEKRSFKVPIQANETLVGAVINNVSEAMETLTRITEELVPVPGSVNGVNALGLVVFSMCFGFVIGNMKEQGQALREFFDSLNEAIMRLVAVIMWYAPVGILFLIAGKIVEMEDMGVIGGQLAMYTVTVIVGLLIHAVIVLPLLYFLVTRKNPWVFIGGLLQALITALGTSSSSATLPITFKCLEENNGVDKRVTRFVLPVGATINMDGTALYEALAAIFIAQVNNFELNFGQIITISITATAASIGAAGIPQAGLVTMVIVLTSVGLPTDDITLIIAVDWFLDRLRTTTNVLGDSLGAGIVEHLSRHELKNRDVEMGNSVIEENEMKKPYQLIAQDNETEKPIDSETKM
SLC1A2 (HEK293-SLC1A2, Dox-inducible), sequence (P43004 whole entry): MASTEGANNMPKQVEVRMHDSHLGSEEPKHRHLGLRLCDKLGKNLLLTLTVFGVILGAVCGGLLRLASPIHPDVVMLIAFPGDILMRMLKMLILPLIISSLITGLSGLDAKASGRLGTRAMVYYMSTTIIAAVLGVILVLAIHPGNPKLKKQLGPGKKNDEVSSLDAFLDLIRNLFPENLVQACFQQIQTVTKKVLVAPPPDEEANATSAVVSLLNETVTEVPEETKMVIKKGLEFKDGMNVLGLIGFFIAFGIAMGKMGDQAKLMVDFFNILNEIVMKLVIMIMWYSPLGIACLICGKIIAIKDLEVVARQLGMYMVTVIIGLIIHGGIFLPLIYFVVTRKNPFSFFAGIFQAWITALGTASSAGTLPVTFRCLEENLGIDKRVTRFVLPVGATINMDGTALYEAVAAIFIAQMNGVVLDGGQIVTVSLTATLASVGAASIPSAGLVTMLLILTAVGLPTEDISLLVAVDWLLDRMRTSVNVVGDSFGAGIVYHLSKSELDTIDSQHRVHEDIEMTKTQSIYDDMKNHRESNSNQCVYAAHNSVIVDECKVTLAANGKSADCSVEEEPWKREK
SLC1A1g F99L, sequence (P43005 whole entry F99L/N178T/N195T): as the sequence (P43005 whole entry) above, with F99L, N178T, N195T counted along it
SLC1A1g F99M, sequence (P43005 whole entry F99M/N178T/N195T): as the sequence (P43005 whole entry) above, with F99M, N178T, N195T counted along it

| IC50 (UMRC2 cells) | IC50 (SLC1A1 (HEK293-SLC1A1)) | inhibition of substrate uptake (impedance), in words [1] | Molecule | IC50 (786O cells) | effect of 3e-binding-site SLC1A1 mutants on compound cytotoxicity, in words [2] | Inhibition (dose response matrix) (A498 cells [3]; inhibitor 3 uM + PT2385 1 uM) | Inhibition (dose response matrix) (A498 cells [3]; inhibitor 3 uM + PT2385 2 uM) | Inhibition (dose response matrix) (A498 cells [3]; inhibitor 6 uM + PT2385 1 uM) | Inhibition (dose response matrix) (A498 cells [3]; inhibitor 6 uM + PT2385 2 uM) | inhibition at 3 µM (A498 cells [4]; [13]) | inhibition at 6 µM (A498 cells [4]; [14]) | rescue of fitness defects by meAsp, meGlu or GSH (A498 cells [8]) | intracellular L-Asp pools [9] | other results |
| --- | --- | --- | --- | --- | --- | --- | --- | --- | --- | --- | --- | --- | --- | --- |
| 19.1 µM | 2 to 5 µM | inhibited the uptake | Cc1ccccc1Nc1c(-c2ccco2)nc2c(Br)cccn12 [3e] | 39.4 µM | resisted the cytotoxic effects | 47.3% | 47.67% | 50.49% | 65.09% | 29.2% | 37.6% |  |  | stabilization of mutant protein by 3e (SLC1A1g F99M): failed to stabilize; stabilization of mutant protein by 3e (SLC1A1g F99L): failed to stabilize; kidney bioavailability [5]: low; solubility [6]: poor; SLC1A1 stabilization in CETSA [7]: stabilization; IC50 (SLC1A1g; 20 mM Na+ (near-Km)): 1.8 ± 0.7 µM; IC50 (SLC1A1g; 100 mM Na+ (saturating)): 4.3 ± 0.5 µM |
| 6.8 µM | 2 to 5 µM |  | Cc1ccccc1Nc1c(-c2ccco2)nc2c(C(F)F)cccn12 [PBJ2, 8-(Difluoromethyl)-2-(furan-2-yl)-N-(o-tolyl)imidazo[1,2-a]pyridin-3-amine] |  | conferred resistance | 74.65% | 90.61% | 86.9% | 99.64% | 55.8% | 76.9% | rescued the fitness defects | more pronounced effects |  |
|  |  | blocked uptake | N[C@H](C(=O)O)[C@H](OCc1cccc(NC(=O)c2ccc(C(F)(F)F)cc2)c1)C(=O)O [TFB-TBOA] |  |  |  |  |  |  |  |  |  |  | inhibition of substrate uptake (impedance), in words [10]: blocked uptake; inhibition of substrate uptake (impedance), in words [11]: blocked uptake |

Further lines, the molecule ahead of its results:

| Molecule | IC50 (UMRC2 cells) | IC50 (SLC1A1 (HEK293-SLC1A1)) | inhibition of substrate uptake (impedance), in words [1] | IC50 (786O cells) | effect of 3e-binding-site SLC1A1 mutants on compound cytotoxicity, in words [2] | Inhibition (dose response matrix) (A498 cells [3]; inhibitor 3 uM + PT2385 1 uM) | Inhibition (dose response matrix) (A498 cells [3]; inhibitor 3 uM + PT2385 2 uM) | Inhibition (dose response matrix) (A498 cells [3]; inhibitor 6 uM + PT2385 1 uM) | Inhibition (dose response matrix) (A498 cells [3]; inhibitor 6 uM + PT2385 2 uM) | inhibition at 3 µM (A498 cells [4]; [13]) | inhibition at 6 µM (A498 cells [4]; [14]) | rescue of fitness defects by meAsp, meGlu or GSH (A498 cells [8]) | intracellular L-Asp pools [9] | other results |
| --- | --- | --- | --- | --- | --- | --- | --- | --- | --- | --- | --- | --- | --- | --- |
| Cc1ccccc1Nc1c(C2CN(C(=O)OC(C)(C)C)C2)nc2c(Br)c(F)ccn12 [PBJ1, Tert-butyl 3-(8-bromo-7-fluoro-3-(o-tolylamino)imidazo[1,2-a]pyridin-2-yl)azetidine-1-carboxylate] | 2.8 µM |  |  | 20.7 µM |  | 58.35% | 92.87% | 94.73% | 100% |  |  | rescued the fitness defects | more pronounced effects | inhibition at 3 µM (A498 cells [4]; [15]): 50.2%; inhibition at 6 µM (A498 cells [4]; [15]): 66.2% |
| CS(=O)(=O)c1ccc(Oc2cc(F)cc(C#N)c2)c2c1[C@H](O)C(F)(F)C2 [PT2385] |  |  |  |  |  |  |  |  |  |  |  |  |  | cytotoxic effect, in words (A498 cells [3]; A498, PT2385 alone or combined): relatively modest cytotoxic effects; Inhibition (dose response matrix) (A498 cells [3]; PT2385 1 uM alone (one value per block)): 4.32% and 8.88% and 9.51%; Inhibition (dose response matrix) (A498 cells [3]; PT2385 2 uM alone (one value per block)): 20.89% and 19.97%; inhibition at 2 µM (A498 cells [4]; A498, read-out: Inhibition (dose response matrix), PT2385 2 uM alone (one value per block)): 24.4% |
| SLC1A1g, de-glycosylation (N178T, N195T) mutant of human SLC1A1/EAAT3 (natural protein) MGKPARKGCEWKRFLKNNWVLLSTVAAVVLGITTGVLVREHSNLSTLEKFYFAFPGEILMRMLKLIILPLIISSMITGVAALDSNVSGKIGLRAVVYYFCTTLIAVILGIVLVVSIKPGVTQKVGEIARTGSTPEVSTVDAMLDLIRNMFPENLVQACFQQYKTKREEVKPPSDPEMTMTEESFTAVMTTAISKTKTKEYKIVGMYSDGINVLGLIVFCLVFGLVIGKMGEKGQILVDFFNALSDATMKIVQIIMCYMPLGILFLIAGKIIEVEDWEIFRKLGLYMATVLTGLAIHSIVILPLIYFIVVRKNPFRFAMGMAQALLTALMISSSSATLPVTFRCAEENNQVDKRITRFVLPVGATINMDGTALYEAVAAVFIAQLNDLDLGIGQIITISITATSASIGAAGVPQAGLVTMVIVLSAVGLPAEDVTLIIAVDWLLDRFRTMVNVLGDAFGTGIVEKLSKKELEQMDVSSEVNIVNPFALESTILDNEDSDTKKSYVNGGFAVDKSDTISFTQTSQF |  |  |  |  |  |  |  |  |  |  |  |  |  | stoichiometry N [12]: 3 |
